Experimental data taken from ChEMBL document CHEMBL1153882, “Prediction of convulsant activity of gases and vapors” (2009).

Organism: Rattus norvegicus
Experiment: Convulsant activity in Sprague-Dawley rat assessed as partial pressure in atmosphere at which convulsion takes place
Format: functional

SMILES | log(1/CON)
FC(F)(F)c1cc(C(F)(F)F)cc(C(F)(F)F)c1 | 1.85
FC(F)(Cl)OC(F)(Cl)C(F)(F)F (centres undefined) | 0.71
FC1(F)C(F)(F)[C@@](F)(Cl)[C@@]1(F)Cl | 1.41
FC(F)(Cl)OC(F)(F)C(F)(F)Cl | 0.68
FC(F)(Cl)C(F)(Cl)C(F)(F)Cl | 1.31
Fc1c(F)c(F)c(C(F)(F)F)c(F)c1F [PERFLUOROTOLUENE] | 3.46
FCOC(F)(F)C(C(F)(F)F)C(F)(F)F | 1.43
FC1(F)C(F)(F)C(F)(Cl)C1(F)Cl (racemic) | 1.26
CCCCCCCC [OCTANE] | 2.18
FC(F)(Br)Br [DIBROMODIFLUOROMETHANE] | 1.59
FC(F)(F)COC(F)(F)Cl | 1.63
FC(C(F)C(F)(F)C(F)(F)C(F)(F)F)C(F)(F)F (centres undefined) | 2.31
FC(F)C(F)(F)C(F)(F)C(F)(F)F | 0.12
FC(F)(F)C(F)(Br)C(F)(F)F | 0.13
FC1(F)C(F)(F)C(F)(F)C1(F)F [PERFLUOROCYCLOBUTANE] | 0.01
FC(F)(Cl)C(F)(Cl)C(F)(Cl)C(F)(F)Cl (centres undefined) | 2.52
FC(F)(F)COCC(F)(F)F [FLUROTHYL] | 2.81
FC(F)(F)C(F)(F)C(F)(F)C(F)(F)Br | 0.59
FC(F)(F)C(F)(F)Cl [CHLOROPENTAFLUOROETHANE] | -0.32
COC(F)(F)C(F)(F)C(F)(F)C(F)(F)F | 0.67
FC(F)OC(F)(Cl)C(F)(F)F (centres undefined) | 0.84
FC(F)(F)C(F)(F)C(F)(F)Br | 0.03

SMILES | log(1/CON)
FC(F)(F)C(F)(F)Br [BROMOPENTAFLUOROETHANE] | 0.02
FC(F)(F)C(F)(Cl)C(F)(F)F | -0.26
FC(F)(F)C(F)(Cl)C(F)(Cl)C(F)(F)F (centres undefined) | 1.04
FC(F)(Cl)C(F)(F)Cl [DICHLOROTETRAFLUOROETHANE] | 0.41
FC1(F)C(F)(F)[C@@](F)(Cl)[C@]1(F)Cl (relative stereo) | 1.19
FC(Cl)(Cl)OC(F)(F)C(F)(F)Cl | 1.36
FC(F)(Cl)C(F)(Cl)Cl | 1.36
FC(F)(Cl)OC(F)(F)C(F)(Cl)Cl | 1.52
FC(F)(F)COC(F)(F)F | 0.66
COC(F)(F)C(F)(C(F)(F)F)C(F)(F)F | 0.67
FC(F)(Br)C(F)(F)C(F)(F)C(F)(F)Br | 1.86
C1CCCCCC1 [CYCLOHEPTANE] | 2.34
FC(F)OC(F)(C(F)F)C(F)(F)F (centres undefined) | 1.25
C1CCCCCCC1 [CYCLOOCTANE] | 2.82
Fc1ccc(F)cc1 | 2.22
FC(F)C(F)(F)C(F)(F)C(F)(F)C(F)(F)C(F)(F)Br | 1.68
C1CCCCC1 [CYCLOHEXANE] | 1.66
FC(F)(F)C(F)(F)C(F)(F)F [PERFLUTREN] | -0.88
CCCCC [PENTANE] | 1.16
CC(F)(F)C(F)(F)F | 0.02
CCCCCCCCC [NONANE] | 2.8
FC(F)(Cl)OC(Cl)(Cl)C(F)(F)F | 1.61
